Measured values as given in patent US20240376138A1, “Crystal Forms, Preparation Method And Application Of Aryl Phosphine Oxide Compound” (Chengdu Di'Ao Jiuhong Pharmaceutical Factory, priority 2021, published 2024).

Assay: Solubility test
Assay type: physicochemical
Conditions: Solution with pH = 6.8, 25° C.±2° C., dihydrate

In the case of `COc1cc(N2CCC(N3CCN(C)CC3)CC2)c(C)cc1Nc1ncc(Br)c(Nc2ccc(C)cc2P(C)(C)=O)n1` [Crystal form 1, (2-((5-bromo-2-((2-methoxy-5-methyl-4-(4-(4-methylpiperazin-1-yl)piperidin-1-yl)phenyl)amino)pyrimidin-4-yl)amino)-5-methylphenyl)dimethylphosphorus oxide dihydrate], the “Solubility for 24 h” value is reported as 3260 µg/mL.
